The text below walks through data of ChEMBL document CHEMBL5728204, “Spiro[3H-indole-3,2′-pyrrolidin]-2(1H)-one compounds and derivatives as MDM2-P53 inhibitors” (2021).

Each structure is given as a SMILES string. “And” between values parts separate entries of the source, which are not always exact repeats. Equal values may be shown once.

The term IC50 denotes the point on the concentration scale where inhibition reaches its midpoint.

The assay is described as follows: A mix consisting of 20 nM GST-MDM2 protein (aa 23-117) and 20 nM biotinylated p53 wt peptide (encompassing aa 16-27 of wt human p53, amino acid sequence QETFSDLWKLLP-Ttds-Lys-Biotin, molecular weight 2132.56 g/mol) is prepared in assay buffer (50 mM Tris/HCl pH 7.2; 120 mM NaCl; 0.1% bovine serum albumin (BSA); 5 mM dithiothreitol (DTT); 1 mM ethylenediaminetetraacetic acid (EDTA); 0.01% Tween 20). 30 μL of the mix is added to the compound dilutions and incubated for 15 min at rt while gently shaking the plate at 300 rounds per minute (rpm). Subsequently, 15 μL of premixed AlphaLISA Glutathione Acceptor Beads and AlphaScreen Streptavidin Donor Beads from PerkinElmer (in assay buffer at a concentration of 10 μg/mL each) are added and the samples are incubated for 30 min at rt in the dark (shaking 300 rpm). Afterwards, the signal is measured in a PerkinElmer Envision HTS Multilabel Reader using the AlphaScreen protocol from PerkinElmer.Each plate contains negative controls where biotinylated p53-peptide and GST-MDM2 are left out and replaced by assay buffer. Negative control values are entered as low basis value when using the software GraphPad Prism for calculations.
In the case of `CC(C1CC1)N1[C@H]2CCn3c(nc4cc(S(C)(=O)=O)ccc43)[C@H]2[C@H](c2cccc(Cl)c2F)[C@]12C(=O)Nc1cc(Cl)ccc12` (some centres undefined), the IC50 was 0.012 µM and 0.007 µM.

Take `COC(=O)c1ccc2c(c1)nc1n2CC[C@H]2[C@@H]1[C@H](c1cccc(Cl)c1F)[C@]1(C(=O)Nc3cc(Cl)ccc31)N2CC1CC1`: the IC50 was 0.003 µM.

`CS(=O)(=O)OCCN1[C@H]2CCn3c(nc4cc(C(=O)O)ccc43)[C@H]2[C@H](c2cccc(Cl)c2F)[C@]12C(=O)Nc1cc(Cl)ccc12`: the IC50 was 0.058 µM.

With `CC(=O)Nc1ccc2c(c1)nc1n2CC[C@H]2[C@@H]1[C@H](c1cccc(Cl)c1F)[C@]1(C(=O)Nc3cc(Cl)ccc31)N2C(C)C1CC1` (some centres undefined), the concentration for half-maximal inhibition (IC50) was 0.015 µM.
